Source: patent publication US20100093824A1 (priority 2006, published 2010)
Where two headings read alike, the source gives them in different places. Non-standard residues stand in square brackets, D forms with d. Residues, ends and D or L forms follow the SMILES beside them. Nle = CCCC[C@H](N)C(=O)O

Legend:
poliovirus [1] = type: cell-based
poliovirus [2] = assay: microbe, parasite or virus in culture; type: cell-based, Poliovirus Mahoney type 1 strain; conditions: Enterovirus C, HeLa S3, read-out: inhibition of virus production in vRNA transfected cells
capsid precursor P1 = type: cell-based, poliovirus
poliovirus [3] = assay: microbe, parasite or virus in culture; type: cell-based, Poliovirus Mahoney type 1 strain; conditions: Enterovirus C, Fibroblast, read-out: inhibition of poliovirus replication
poliovirus [4] = assay: microbe, parasite or virus in culture; type: cell-based, Poliovirus Mahoney type 1 strain; conditions: Enterovirus C, HeLa S3, 7 h, read-out: IC50 of inhibition of poliovirus replication
[5] = test system: L protein, the Respiratory Syncytial virus polymerase; type: cell-based, RSV, strain A2; conditions: Hep-2 cells, 17AAG 5 μM
poliovirus [6] = test system: poliovirus; design: species or system cPVR transgenic mice; conditions: mouse, in vivo
[7] = mouse, in vivo, ip

Compound: COC1=C2C[C@@H](C)C[C@H](OC)[C@H](O)[C@@H](C)/C=C(\C)[C@H](OC(N)=O)[C@@H](OC)/C=C\C=C(/C)C(=O)NC(=CC1=O)C2=O [GA, Geldanamycin]
- reduction in virus production (poliovirus [1]): ~50%
- inhibition at 2 µM (poliovirus [2]): 95%
- time in which P1 was readily degraded after treatment (capsid precursor P1): ≤ 3 h
- inhibition at 0.1 µM (poliovirus [3]): > 99%
- IC50 (poliovirus [4]): 110 nM

Compound: trichostatin A [TSA]
- maximal reduction in virus production (poliovirus [1]): 30%

Compound: CC(=O)N[C@@H](CSC(=O)[C@]1([C@@H](O)C(C)C)NC(=O)[C@H](C)[C@@H]1O)C(=O)O [lactacystin, Lactacystin]
- protection of P1 from GA-induced degradation (capsid precursor P1): protected P1 from degradation

Compound: CCCC[C@@H](C=O)NC(=O)[C@H](CC(C)C)NC(=O)[C@H](CC(C)C)NC(C)=O [ALLN, N-Acetyl-L-leucyl-L-leucyl-L-norleucinal] (Ac-Leu-Leu-[Nle]-aldehyde)
- protection of P1 from GA-induced degradation (capsid precursor P1): protected P1 from degradation

Compound: C=CCNC1=C2C[C@@H](C)CC(OC)[C@H](O)[C@@H](C)/C=C(\C)C(OC(N)=O)C(OC)/C=C\C=C(/C)C(=O)NC(=CC1=O)C2=O (stereo partly shown) [17AAG, 17-Allylamino-17-demethoxygeldanamycin]
- effect on RSV L protein [5]: causes degradation of L protein
- viral load in the CNS (poliovirus [6]): dramatically reduced the viral load
- mice with virus decreased to undetectable levels (poliovirus [6]; 2.5 mg/kg): 4 of 8
- mice with virus decreased to undetectable levels (poliovirus [6]; 25 mg/kg): 5 of 8
- apparent toxicity to the treated animal [7]: did not result in any apparent toxicity
